# The Deep4Chem optical property database
# Test: solvent given as SMILES
compound,measurement,setting,value
CCCCc1ccc2ccc3c(CCCC)cc(CCCC)c4ccc1c2c34,emission maximum,in CCCCCC,384 nm
same,emission maximum,in CO,384 nm
same,emission maximum,in ClCCl,385 nm
Cn1c(=O)cc(C(=O)c2ccccc2)c2sc(-c3ccc(C(F)(F)F)cc3)cc21,emission maximum,in CC#N,517 nm
same,emission maximum,in ClCCl,511 nm
FC(F)(F)c1ccc(-c2nc(-c3ccc(C(F)(F)F)cc3)n3ccccc23)cc1,emission maximum,in ClC(Cl)Cl,480 nm
CCCCCCN1C(=O)c2cccc3c(-c4ccc(-c5cc(-c6ccc(C)cc6)n(-c6ccccc6)n5)s4)ccc(c23)C1=O,emission maximum,in ClCCl,521 nm
CC1(C)CC(=O)c2ccccc2N1,emission maximum,in CC#N,439 nm
same,emission maximum,in CCO,483 nm
CC(C)CCC[C@@H](C)[C@H]1CC[C@H]2[C@@H]3CC=C4C[C@@H](OC(=O)Oc5cc(/C=C/C=C/c6ccc(N(C)C)cc6)ccc5[N+](=O)[O-])CC[C@]4(C)[C@H]3CC[C@]12C,emission maximum,in C1CCCCC1,505 nm
same,emission maximum,in C1CCOC1,677 nm
same,emission maximum,in C1COCCO1,620 nm
same,emission maximum,in CCCCCCC,502 nm
same,emission maximum,in Cc1ccccc1,595 nm
CCCC1=Cc2nc1ccc1[nH]c(cc1CCC)c1nc(c(OC(=O)CCCC(=O)OC(C)(C)C)cc3[nH]c2cc3CCC)C(CCC)=C1,emission maximum,in Cc1ccccc1,651 nm
COc1ccc(/C=C/C2=C3CCc4ccccc4C3=[O+][B-](F)(F)O2)cc1,emission maximum,in ClCCl,515 nm
CC(C)Nc1cc2c(cc1F)c(=O)c1cc(F)c(NC(C)C)cc1n2C,emission maximum,in CCO,421 nm
N#Cc1c(N2CCCCC2)cc(-c2ccc(-c3ccccc3)s2)c2c1CCc1ccccc1-2,emission maximum,in C1CCOC1,515 nm
c1ccc(/C(=C(\c2ccccc2)c2cc(-c3ccc(-c4ccccc4)cc3)ccc2-c2ccc(-c3ccccc3)cc2)c2cc(-c3ccc(-c4ccccc4)cc3)ccc2-c2ccc(-c3ccccc3)cc2)cc1,emission maximum,in C1CCOC1,496 nm
Cc1cccc(Nc2ccccc2C(=O)O)c1C,emission maximum,in C1CCCCC1,438 nm
same,emission maximum,in C1CCOC1,438 nm
same,emission maximum,in C1COCCO1,437 nm
same,emission maximum,in CC#N,398 nm
same,emission maximum,in CCOC(C)=O,439 nm
same,emission maximum,in CN(C)C=O,385 nm
same,emission maximum,in CO,390 nm
same,emission maximum,in ClC(Cl)Cl,442 nm
CCC1=C(C)C(=O)n2c1cc1c(C)c(CC)c(C)n1c2=O,emission maximum,in CO,540 nm
same,emission maximum,in CS(C)=O,510 nm
same,emission maximum,in ClC(Cl)Cl,500 nm
same,emission maximum,in c1ccccc1,500 nm
CC/[NH+]=c1\cc2oc3cc(NCCC(=O)NC(C)C(=O)OC)c4ccccc4c3nc-2cc1C (stereo not given),emission maximum,in CCO,644 nm
CSC1=C(C)C2=C(c3ccc(C)cc3)c3c(C)c(Cl)c(C)n3[B-](F)(F)[N+]2=C1C,emission maximum,in C1CCOC1,655 nm
CC(C)(C)c1ccc2c(c1)c1cc(C(C)(C)C)ccc1n2-c1cccc2c1Oc1c(-c3nc(-c4ccccc4)nc(-c4ccccc4)n3)cccc1C2(C)C,emission maximum,in C1CCCCC1,428 nm
same,emission maximum,in CC(C)=O,503 nm
same,emission maximum,in Cc1ccccc1,451 nm
same,emission maximum,in ClC(Cl)Cl,489 nm
c1ccc2c(c1)Sc1ccccc1S2,emission maximum,in CC1CCCCC1,431 nm
CCCCCCCCCCCCCCCCOc1cc(C#Cc2ccc3ccccc3c2)c(OCCCCCCCCCCCCCCCC)cc1C#Cc1ccc(C=C(C#N)C#N)cc1,emission maximum,in Brc1ccccc1,582 nm
same,emission maximum,in C1CCCCC1,484 nm
same,emission maximum,in C1CCOC1,602 nm
same,emission maximum,in C1COCCO1,554 nm
same,emission maximum,in CCCCCC,480 nm
same,emission maximum,in CCCCCCCCO,596 nm
same,emission maximum,in CCCCOCCCC,524 nm
same,emission maximum,in CCOC(C)=O,590 nm
same,emission maximum,in CCOCC,550 nm
same,emission maximum,in Cc1ccccc1,530 nm
same,emission maximum,in ClC(Cl)(Cl)Cl,500 nm
same,emission maximum,in ClC(Cl)Cl,596 nm
same,emission maximum,in ClCCl,618 nm
c1ccc2c(c1)-c1ccccc1C21c2ccccc2-c2cnccc21,emission maximum,in CC1CCCO1,318 nm
Cc1ccc(-c2cc(-c3ccccc3Cl)c3c(N)nc(N4CCCC4)c(C#N)c3n2)cc1,emission maximum,in CC#N,526 nm
same,emission maximum,in CC(C)=O,522 nm
same,emission maximum,in CC(C)O,516 nm
same,emission maximum,in CO,525 nm
same,emission maximum,in ClC(Cl)Cl,508 nm
same,emission maximum,in ClCCl,514 nm
same,emission maximum,in c1ccccc1,512 nm
Cc1cc2c3ccccc3sc2c2[nH]c3ccccc3c12,emission maximum,in ClCCl,365 nm
CCCCCCN1C(=O)c2cccc3cc(/N=C\c4cn(C)c5ccccc45)cc(c23)C1=O,emission maximum,in ClC(Cl)Cl,500 nm
CCCCCOc1cc2oc(=O)c3c4ccc(N)cc4c4ccc5cccc6c(c1)c2c3c4c56,emission maximum,in C1CCOC1,550 nm
Cc1ccc2c(c1)C1(c3ccccc3-c3ccccc31)c1cc(C)ccc1N2c1ccc2c(c1)Sc1ccccc1P2(=O)c1ccccc1 (stereo not given),emission maximum,in Cc1ccccc1,454.61 nm
CCC(C)(C)c1ccc2c(c1)C(CCOC)(CCOC)c1cc(-c3ccc4c(c3)C(CCOC)(CCOC)c3cc(C(C)(C)CC)ccc3-4)ccc1-2,emission maximum,in C1CCCCC1,371 nm
Brc1ccc(-c2nc(-c3ccc(C#Cc4ccc(-n5c6ccccc6c6ccccc65)cc4)cc3)nc(-c3ccc(C#Cc4ccc(-n5c6ccccc6c6ccccc65)cc4)cc3)n2)cc1,emission maximum,in C1CCOC1,465 nm
same,emission maximum,in CC#N,563 nm
same,emission maximum,in CCCCCC,411 nm
same,emission maximum,in Cc1ccccc1,432 nm
same,emission maximum,in ClCCl,498 nm
N#Cc1c(-n2c3ccc(Br)cc3c3cc(Br)ccc32)c(C#N)c(-n2c3ccc(Br)cc3c3cc(Br)ccc32)c(-n2c3ccc(Br)cc3c3cc(Br)ccc32)c1-n1c2ccc(Br)cc2c2cc(Br)ccc21,emission maximum,in Cc1ccccc1,521 nm
CCCCC[n+]1ccc(/C=C/c2ccc(N(C)C)c3ccccc23)c2ccccc21,emission maximum,in C1CCOC1,697 nm
same,emission maximum,in C1COCCO1,680 nm
same,emission maximum,in CC#N,720 nm
same,emission maximum,in CC(C)=O,714 nm
same,emission maximum,in CCCCO,695 nm
same,emission maximum,in CCO,670 nm
same,emission maximum,in CN(C)C=O,721 nm
same,emission maximum,in CO,708 nm
same,emission maximum,in CS(C)=O,720 nm
same,emission maximum,in O,697 nm
same,emission maximum,in c1ccccc1,675 nm
same,emission maximum,in c1ccncc1,706 nm
C1=Cc2ccccc2C(=Cc2ccc(C=C3c4ccccc4-c4ccccc43)cc2)c2ccccc21,emission maximum,in C1CCOC1,444 nm
CCn1c2c(-c3ccc(-c4cccs4)s3)cc(C(C)(C)C)cc2c2cc(C(C)(C)C)cc(-c3ccc(-c4cccs4)s3)c21,emission maximum,in ClCCl,440 nm
COC(=O)c1c(C(=O)OC)c2ccc(C)nn2c1C,emission maximum,in CCCCCC,449 nm
CCN(CC)c1ccc(-c2ccc(-c3nc4ccccc4c(=O)[nH]3)s2)cc1,emission maximum,in CC#N,541 nm
same,emission maximum,in Cc1ccccc1,490 nm
CCCCCCCCN1C(=O)c2ccc3c4c(-c5ccc(-n6c7ccccc7c7ccccc76)cc5)cc5c6c(ccc(c7c(-c8ccc(-n9c%10ccccc%10c%10ccccc%109)cc8)cc(c2c37)C1=O)c64)C(=O)N(CCCCCCCC)C5=O,emission maximum,in ClC(Cl)Cl,651 nm
Cn1nc(-c2ccc(C(F)(F)F)cc2)cc1-c1ccccc1,emission maximum,in ClCCl,341 nm
COc1ccc(N(c2ccccc2)c2cc3ccc4cc(N(c5ccccc5)c5ccc(OC)cc5)cc5ccc(c2)c3c45)cc1,emission maximum,in Cc1ccccc1,482 nm
N#C/C(=N/Nc1ccc(C#N)cc1)c1nc(-c2ccccc2)cs1,emission maximum,in CCO,486 nm
same,emission maximum,in Cc1ccccc1,490 nm
same,emission maximum,in ClCCl,492 nm
C1=CC2C=c3c(cc4cccc5cc6ccccc6c3c45)C3=c4ccccc4=CC(=C1)C32 (stereo not given),emission maximum,in ClCCl,683 nm
CN1CCc2cc(C3=Cc4cccc[n+]4[B-](F)(F)O3)ccc21,emission maximum,in ClC(Cl)Cl,515 nm
CCN1c2ccc(/C=N/Nc3ccccn3)cc2Sc2cc(-c3ccc(OC)cc3)ccc21,emission maximum,in C1CCOC1,491 nm
same,emission maximum,in CS(C)=O,503 nm
same,emission maximum,in Cc1ccccc1,484 nm
same,emission maximum,in ClCCl,497 nm
C[N+]1=C(/C=C/C=C2/N(CCC[N+](C)(C)C)c3ccc(S(=O)(=O)[O-])cc3C2(C)C)C(C)(C)c2ccccc21,emission maximum,in CS(C)=O,570 nm
